Earlier results in patent US7390502B2, “SN-38 lipid complexes and their methods of use” (NeoPharm, Inc., priority 2000, dated 2008).

How the values were obtained:
[1] = tends to precipitate into aqueous phase
[2] = system: topoisomerase I purified from human and rodent tumor cell lines; settings: versus irinotecan; enzyme purified from human and rodent tumor cell lines
[3] = versus irinotecan
[4] = aqueous solutions / water

CCc1c2c(nc3ccc(O)cc13)-c1cc3c(c(=O)n1C2)COC(=O)[C@]3(O)CC [SN-38, 7-ethyl-10-hydroxycamptothecin]
affinity for lipid membranes [1]: low affinity
potency relative to irinotecan as an inhibitor of topoisomerase I [2]: approximately 1000 times
potency relative to irinotecan in in vitro cytotoxicity assays [3]: up to 2,000 fold
solubility in aqueous solutions [4]: exceedingly insoluble
